The structures appear in SMILES notation.

The values below come from article PMC3929365, “Benzimidazoisoquinolines: A New Class of Rapidly Metabolized Aryl Hydrocarbon Receptor (AhR) Ligands that Induce AhR-Dependent Tregs and Prevent Murine Graft-Versus-Host Disease” (PLoS ONE, 2014).

For data set [1], the system named is CD4+ T cells. Briefly: Donor CD4+ T cell proliferation in vivo (CFSE dilution) during the GVH response. Details: species or system B6D2F1 host mice. As to conditions: 10 mg/kg/d i.p. for two days. How it is done: (§1) A. Splenocytes from C57Bl/6 mice were labeled with CFSE and activated in vitro with anti-CD3 and anti-CD28 in the presence of 100 nM 10-Cl-BBQ or DMSO for 72 h. B. C57Bl/6 donor T cells were labeled with CFSE and injected into B6D2F1 host mice to initiate the GVH response. Host mice (n = 5 per group) were treated with vehicle or 10-Cl-BBQ i.p. (10 mg/kg/d) for two days. Donor cells were identified by gating on CD4^+CFSE^+ cells. […] (TIF) Click here for additional data file.

For data set [2], the system named is GVHD. Briefly: Graft-versus-host disease (GVHD) model, 15 days. The class given is in vivo. The settings on record: for GVHD pathology (clinical pathology score): 10 mg/kg then 2 mg/kg/day, day 15. How it is done: Splenocytes and lymphocytes were harvested from C57Bl/6 mice. In some experiments, T cells were purified by negative selection using a Pan-T kit (Miltenyi Biotec) and stained with 2 µM carboxyfluorescein succinimidyl ester (CFSE) (Life Technologies). At least 2×10^7 purified T cells or approximately 1×10^8 pooled splenocytes and lymphocytes were injected i.v. into B6D2F1 host mice to initiate the GVH response. GVHD pathology was assessed on a scale of 0 to 3 (0 = normal, 1 = moderate morbidity, 2 = severe morbidity, 3 = death) according to the following five criteria: weight-loss, posture, activity, fur texture and death and reported as a Clinical GVHD Score.
Host mice were treated daily with vehicle, 10-Cl-BBQ or BBQ analogues by i.p. injection. The vehicle consisted of a mixture of 6.7% anisole and peanut oil. Mice treated with a single i.p. dose of 15 µg TCDD/kg body weight in the same vehicle were used as positive controls.
Figure 4 10-Cl-BBQ suppresses GVHD in an AhR-dependent manner. A) B6D2F1 host mice were injected with wild-type (WT) or AhR-deficient (AhR^−/−) splenocytes to initiate the GVH response; mice were given 10-Cl-BBQ or vehicle treatments daily for 15 days. A single loading dose of 10 mg/kg 10-Cl-BBQ was given at the time of donor cell injection and a maintenance dose of 2 mg/kg was given every day thereafter until the end of the experiment. The progression of GVHD was monitored and a clinical pathology score as defined in Methods was calculated. GVHD was suppressed by 10-Cl-BBQ only if the donor cells expressed AhR. In a separate study, B6D2F1 host mice in groups of 6 were injected with splenocytes from C57Bl/6 mice to initiate the GVH response, and treated with 10-Cl-BBQ or vehicle daily for 15 days as in (A). TCDD (15 µg/kg) was given to an additional group of 6 mice on day 0 as a positive control. […] The donor cells were identified in the host spleen as the H-2D^d negative population.* = p<0.05 vs vehicle control. TEXT PRINTED IN THE PICTURE: (C) TCDD: 17 | (C) 10-Cl-BBQ: 11 | (E) TCDD: 29 | (E) 10-Cl-BBQ: 35 DOUBTS OF THE COPYIST ABOUT THIS PICTURE: Panels C and E: the numbers inside the flow cytometry plots are printed without any measure or unit, so they are copied as bare numbers (plot axes: CD44 vs CD45RB in C, CD19 vs H-2D^d in E). / The Vehicle control plots also print numbers (C: 36; E: 2). They are not listed in lines because Vehicle is a control, not a substance.

Data set [3] can be described thus: Serum liver chemistry profile. Type of data set: in vivo, B6D2F1 mice. The settings on record: 10 mg/kg/day i.p., 2 days. How it is done:
Supplementary file pone.0088726.s004.docx: Table S1 Serum liver chemistry profile. B6D2F1 mice were give 10 mg/kg/day of 10-Cl-BBQ or vehicle i.p. After 2 days serum was collected and analyzed. n = 5 mice per treatment, average values are shown(± standard deviation). ALT – Alanine transaminase, SGPT – serum glutamic pyruvate transaminase. (DOCX) Click here for additional data file.
Table S1. Serum liver chemistry profile. B6D2F1 mice were give 10 mg/kg/day of 10-Cl-BBQ or vehicle i.p. After 2 days serum was collected and analyzed. n = 5 mice per treatment, average values are shown(± standard deviation). ALT – Alanine transaminase, SGPT – serum glutamic pyruvate transaminase.

Data set [4] has as its system CYP1A1 mRNA. Briefly: Hepatic CYP1A1 mRNA induction after single i.p. dose. As to conditions: 10 mg/kg i.p. Type of data set: in vivo, C57BL/6 mice. How it is done:
RNA was isolated from lymph nodes of B6D2F1 host mice with the RNeasy Mini Kit (Qiagen). cDNA was prepared from at least 1 µg RNA in a 2-step reaction using the ReactionReady First Strand cDNA synthesis kit (SA Biosciences) according to the manufacturer’s instructions and Superscript III reverse-transcriptase (Life Technologies). The qPCR reaction was carried out on an ABI PRISM 7500 Real-Time PCR system (Applied Biosystems). The reaction mixture consisted of SYBR Green/ROX qPCR Master Mix (SA Bioscience), 2–10 ng-RNA equivalent cDNA and 1 µl of the gene-specific commercial primer sets (SA Biosciences). The following conditions were used: 10 min at 95°C (1 cycle), 15 s at 95°C and 1 min at 60°C (40 cycles). The melt-curve was generated at 95°C for 15 s. The process was validated by utilizing a no-reverse-transcriptase control. The raw data was normalized to Actb and the fold-change was calculated by the ΔΔCt method using vehicle-treated sample values as the control.
Figure 2 Pharmacokinetics of 10-Cl-BBQ. C57BL/6 mice were given 10 mg/kg 10-Cl-BBQ by i.p. injection. A) Blood was collected at the indicated times by cardiac puncture. The serum was processed to remove protein and the samples were analyzed by QTRAP 4000 LC/MS/MS. The serum concentration of 10-Cl-BBQ was determined from a standard curve based on known concentrations of 10-Cl-BBQ. B) Liver tissue was harvested and processed for mRNA analysis. CYP1A1 gene expression was determined relative to the β-actin gene, and the fold-induction was determined by the ΔΔCt method using the vehicle-treated samples as a control. The mean values are shown with SEM for 2–3 mice per time point.

Data set [5] deals with activated T cells. As to the kind of experiment: T cell proliferation in vitro (CFSE dilution, anti-CD3/anti-CD28). The class given is cell-based, C57Bl/6 mice. The settings on record: 100 nM, 72 h, anti-CD3 and anti-CD28. The method, then:
as §1

Turning to `O=c1c2cccc3cccc(c32)c2nc3ccc(Cl)cc3n12` [10-Cl-BBQ, 10-chloro-7H-benzimidazo[2,1-a]benzo[de]isoquinolin-7-one], the “proliferation of activated T cells in vivo” value in data set [1] is on record as “did not inhibit proliferation”. Besides, the “GVHD pathology (clinical pathology score)” value in data set [2] (AhR-deficient donor cells) is listed as “not affected”. The “GVHD pathology (clinical pathology score)” value in data set [2] (AhR-wild type donor cells) is “significantly reduced”. Besides, the overt toxicity result in data set [2] (daily treatment during the GVH response) is given as “without overt toxicity”. In addition, the “engraftment of donor cells in host spleen” value in data set [2] (day 15, 10 mg/kg then 2 mg/kg daily) is recorded as “significantly reduced the engraftment of donor cells”. Also, the “acute hepatic toxicity in mice” value in data set [3] is “nor did it induce acute hepatic toxicity”. In data set [3] (serum, mean (± SD), n = 5), the “ALT (SGPT)” value is listed as 34.4 (± 10.4) U/l, the Albumin is reported as 3.3 (± 0.1) g/dl, the “Alkaline Phosphatase” value is listed as 51.4 (± 8.3) U/l and the Bilirubin is on record as 0.12 (± 0) mg/dl. Further, in data set [3] (serum, mean (± SD), n = 5), the “Blood Urea Nitrogen” value was 10.2 (± 1.5) mg/dl, the Cholesterol is given as 119.2 (± 10.4) mg/dl and the Glucose was 201.2 (± 10.4) mg/dl. Further, in data set [3] (serum, n = 5), the “Gamma Glutamyl Transferase” value turned out to be 0 U/l. Moreover, in data set [4] (4 hours), the “Cyp1a1 mRNA induction in hepatic tissue” value was 2 fold. Besides, the “Cyp1a1 mRNA induction in hepatic tissue” value in data set [4] (20 hr) was “up to 7 fold”. In addition, the “Cyp1a1 mRNA induction in hepatic tissue” value in data set [4] (48 h) is “no longer apparent”. Moreover, the “proliferation of activated T cells in vitro” value in data set [5] is given as “did not inhibit proliferation”.
